Experimental data reported in ChEMBL document CHEMBL5233266, “β-Carboline as a Privileged Scaffold for Multitarget Strategies in Alzheimer's Disease Therapy” (J Med Chem, 2021).
Values joined by “and” are separate entries in the source; they are usually repeats but may differ in a detail not shown here. Equal entries are not always repeated. Blank lines part the entries; values can stand above or below the compound they belong to.

Key:
[1] = biological target: T1, Acetylcholinesterase (Homo sapiens, UniProt P22303); test: Inhibition of AChE (unknown origin) using acetylthiocholine iodide as substrate incubated for 20 mins followed by substrate addition by Ellman's method
[2] = biological target: T2, Cholinesterase (Homo sapiens, UniProt P06276); test: Inhibition of BuChE (unknown origin) using acetylthiocholine iodide as substrate incubated for 20 mins followed by substrate addition by Ellman's method
[3] = biological target: Glutamate receptor ionotropic, NMDA 2B (Homo sapiens, UniProt Q05586+Q13224); test: Inhibition of NMDA receptor NR2B subunit (unknown origin)
[4] = biological target: T1, Acetylcholinesterase; test: Inhibition of AChE (unknown origin)
[5] = biological target: T2, Cholinesterase; test: Inhibition of BuChE (unknown origin)
[6] = biological target: T1, Acetylcholinesterase; test: Inhibition of AChE (unknown origin) by Ellman's method
[7] = biological target: cGMP-specific 3',5'-cyclic phosphodiesterase (Homo sapiens, UniProt O76074); test: Binding affinity to PDE5 (unknown origin) assessed as inhibition constant
[8] = biological target: T3, 5-hydroxytryptamine receptor 2C (Homo sapiens, UniProt P28335); test: Binding affinity to 5-HT2C (unknown origin) assessed as inhibition constant
T3 sequence (P28335 whole entry): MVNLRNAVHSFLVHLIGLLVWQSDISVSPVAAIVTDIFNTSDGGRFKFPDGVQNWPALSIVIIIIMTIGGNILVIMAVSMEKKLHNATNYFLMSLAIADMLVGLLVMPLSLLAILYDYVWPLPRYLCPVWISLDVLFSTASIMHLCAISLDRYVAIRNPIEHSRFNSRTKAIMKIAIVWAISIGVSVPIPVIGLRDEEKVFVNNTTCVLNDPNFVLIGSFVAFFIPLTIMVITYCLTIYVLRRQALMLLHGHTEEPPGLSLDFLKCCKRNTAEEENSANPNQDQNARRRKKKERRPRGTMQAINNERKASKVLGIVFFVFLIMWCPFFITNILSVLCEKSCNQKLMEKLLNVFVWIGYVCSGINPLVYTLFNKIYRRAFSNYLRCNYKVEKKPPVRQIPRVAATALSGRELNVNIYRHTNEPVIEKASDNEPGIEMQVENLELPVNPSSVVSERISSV

[9] = biological target: GABA-A receptor; anion channel; test: Displacement of [3H]flunitrazepam from GABAA (unknown origin ) receptor by radioligand binding assay; type: protein-complex assay, Homo sapiens
[10] = biological target: T4, Gamma-aminobutyric acid receptor subunit alpha-1 (Homo sapiens, UniProt P14867); test: Binding affinity to human recombinant GABAA alpha1 receptor assessed as inhibition constant incubated for 1 hrs by liquid scintillation counting analysis
T4 sequence (P14867 whole entry): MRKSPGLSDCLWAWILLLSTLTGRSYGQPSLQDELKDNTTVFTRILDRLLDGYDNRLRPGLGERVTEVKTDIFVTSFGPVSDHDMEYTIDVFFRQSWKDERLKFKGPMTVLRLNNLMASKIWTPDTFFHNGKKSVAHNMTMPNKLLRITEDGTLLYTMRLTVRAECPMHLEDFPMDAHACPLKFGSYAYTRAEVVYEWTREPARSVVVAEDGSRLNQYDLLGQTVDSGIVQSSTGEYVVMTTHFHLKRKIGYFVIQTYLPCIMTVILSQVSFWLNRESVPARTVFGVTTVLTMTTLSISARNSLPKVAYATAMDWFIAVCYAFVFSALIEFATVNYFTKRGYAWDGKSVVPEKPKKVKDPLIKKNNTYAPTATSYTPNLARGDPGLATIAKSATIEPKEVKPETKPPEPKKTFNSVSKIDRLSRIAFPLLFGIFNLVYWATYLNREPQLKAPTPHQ

[11] = biological target: T5, Gamma-aminobutyric acid receptor subunit alpha-2 (Homo sapiens, UniProt P47869); test: Binding affinity to human recombinant GABAA alpha2 receptor assessed as inhibition constant incubated for 1 hrs by liquid scintillation counting analysis
T5 sequence (P47869 whole entry): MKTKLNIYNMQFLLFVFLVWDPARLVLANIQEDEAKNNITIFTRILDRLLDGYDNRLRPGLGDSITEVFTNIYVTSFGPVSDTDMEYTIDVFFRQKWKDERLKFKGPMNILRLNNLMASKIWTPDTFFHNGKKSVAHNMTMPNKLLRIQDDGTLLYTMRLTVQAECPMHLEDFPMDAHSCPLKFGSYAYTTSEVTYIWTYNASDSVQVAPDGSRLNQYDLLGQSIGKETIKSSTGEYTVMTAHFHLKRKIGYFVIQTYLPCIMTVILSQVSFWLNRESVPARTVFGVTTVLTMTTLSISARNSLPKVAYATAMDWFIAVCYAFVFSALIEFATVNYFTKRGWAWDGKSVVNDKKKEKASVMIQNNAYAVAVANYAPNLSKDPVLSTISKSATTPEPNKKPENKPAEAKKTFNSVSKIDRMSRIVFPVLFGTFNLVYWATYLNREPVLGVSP

[12] = biological target: T6, Gamma-aminobutyric acid receptor subunit alpha-3 (Homo sapiens, UniProt P34903); test: Binding affinity to human recombinant GABAA alpha3 receptor assessed as inhibition constant incubated for 1 hrs by liquid scintillation counting analysis
T6 sequence (P34903 whole entry): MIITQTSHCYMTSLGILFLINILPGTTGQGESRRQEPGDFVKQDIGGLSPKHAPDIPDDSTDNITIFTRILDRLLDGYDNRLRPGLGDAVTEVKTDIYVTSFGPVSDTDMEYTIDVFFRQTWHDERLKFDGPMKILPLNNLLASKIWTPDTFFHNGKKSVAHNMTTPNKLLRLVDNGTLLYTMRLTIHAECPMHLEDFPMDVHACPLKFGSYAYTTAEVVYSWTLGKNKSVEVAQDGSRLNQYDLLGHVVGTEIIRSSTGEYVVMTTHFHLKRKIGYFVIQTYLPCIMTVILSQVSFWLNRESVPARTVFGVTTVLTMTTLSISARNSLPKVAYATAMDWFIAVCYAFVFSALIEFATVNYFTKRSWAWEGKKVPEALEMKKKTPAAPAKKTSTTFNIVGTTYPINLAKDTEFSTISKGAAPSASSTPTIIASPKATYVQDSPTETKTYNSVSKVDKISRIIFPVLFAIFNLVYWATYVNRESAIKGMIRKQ

[13] = biological target: Gamma-aminobutyric acid receptor subunit alpha-4 (Homo sapiens, UniProt P48169); test: Binding affinity to human recombinant GABAA alpha4 receptor assessed as inhibition constant incubated for 1 hrs by liquid scintillation counting analysis
[14] = biological target: T7, Gamma-aminobutyric acid receptor subunit alpha-5 (Homo sapiens, UniProt P31644); test: Binding affinity to human recombinant GABAA alpha5 receptor assessed as inhibition constant incubated for 1 hrs by liquid scintillation counting analysis
T7 sequence (P31644 whole entry): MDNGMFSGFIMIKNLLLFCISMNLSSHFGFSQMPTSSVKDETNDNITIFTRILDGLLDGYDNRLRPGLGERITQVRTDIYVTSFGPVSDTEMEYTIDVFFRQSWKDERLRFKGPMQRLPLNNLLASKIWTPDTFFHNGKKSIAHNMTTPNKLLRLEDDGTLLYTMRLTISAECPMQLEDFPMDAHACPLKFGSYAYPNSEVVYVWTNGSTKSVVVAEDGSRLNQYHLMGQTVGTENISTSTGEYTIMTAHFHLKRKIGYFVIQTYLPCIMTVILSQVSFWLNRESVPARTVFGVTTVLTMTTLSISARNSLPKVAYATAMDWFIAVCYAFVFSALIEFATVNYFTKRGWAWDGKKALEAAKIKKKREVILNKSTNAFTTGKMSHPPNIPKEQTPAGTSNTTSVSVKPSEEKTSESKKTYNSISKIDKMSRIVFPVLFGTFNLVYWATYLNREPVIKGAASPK

[15] = biological target: Gamma-aminobutyric acid receptor subunit alpha-6 (Homo sapiens, UniProt Q16445); test: Binding affinity to human recombinant GABAA alpha6 receptor assessed as inhibition constant incubated for 1 hrs by liquid scintillation counting analysis
[16] = biological target: T1, Acetylcholinesterase; test: Inhibition of AChE (unknown origin) incubated for 40 mins by Ellman's method
[17] = biological target: GABA-A receptor; anion channel; test: Inhibition of GABAA receptor (unknown origin); type: protein-complex assay, Homo sapiens
[18] = biological target: 5-hydroxytryptamine receptor 5A (Homo sapiens, UniProt P47898); test: Binding affinity to 5-HT5AR (unknown origin) assessed as inhibition constant
[19] = biological target: 5-hydroxytryptamine receptor 2B (Homo sapiens, UniProt P41595); test: Binding affinity to 5-HT2BR (unknown origin) assessed as inhibition constant
Chain of 5-hydroxytryptamine receptor 2B (P41595 whole entry): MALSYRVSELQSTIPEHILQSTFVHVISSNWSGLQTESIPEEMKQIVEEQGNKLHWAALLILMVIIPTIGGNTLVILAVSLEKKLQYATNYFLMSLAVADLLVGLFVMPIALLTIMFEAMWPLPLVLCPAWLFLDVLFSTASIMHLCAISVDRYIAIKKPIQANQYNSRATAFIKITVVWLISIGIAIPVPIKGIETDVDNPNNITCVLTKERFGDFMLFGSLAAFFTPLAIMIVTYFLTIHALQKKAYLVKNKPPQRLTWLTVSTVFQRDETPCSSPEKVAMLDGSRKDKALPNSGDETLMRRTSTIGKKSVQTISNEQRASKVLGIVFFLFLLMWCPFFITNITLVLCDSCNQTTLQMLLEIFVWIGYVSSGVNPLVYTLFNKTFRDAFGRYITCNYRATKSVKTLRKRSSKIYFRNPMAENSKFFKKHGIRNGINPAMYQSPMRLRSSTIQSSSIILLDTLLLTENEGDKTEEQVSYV

T1 sequence (P22303 whole entry): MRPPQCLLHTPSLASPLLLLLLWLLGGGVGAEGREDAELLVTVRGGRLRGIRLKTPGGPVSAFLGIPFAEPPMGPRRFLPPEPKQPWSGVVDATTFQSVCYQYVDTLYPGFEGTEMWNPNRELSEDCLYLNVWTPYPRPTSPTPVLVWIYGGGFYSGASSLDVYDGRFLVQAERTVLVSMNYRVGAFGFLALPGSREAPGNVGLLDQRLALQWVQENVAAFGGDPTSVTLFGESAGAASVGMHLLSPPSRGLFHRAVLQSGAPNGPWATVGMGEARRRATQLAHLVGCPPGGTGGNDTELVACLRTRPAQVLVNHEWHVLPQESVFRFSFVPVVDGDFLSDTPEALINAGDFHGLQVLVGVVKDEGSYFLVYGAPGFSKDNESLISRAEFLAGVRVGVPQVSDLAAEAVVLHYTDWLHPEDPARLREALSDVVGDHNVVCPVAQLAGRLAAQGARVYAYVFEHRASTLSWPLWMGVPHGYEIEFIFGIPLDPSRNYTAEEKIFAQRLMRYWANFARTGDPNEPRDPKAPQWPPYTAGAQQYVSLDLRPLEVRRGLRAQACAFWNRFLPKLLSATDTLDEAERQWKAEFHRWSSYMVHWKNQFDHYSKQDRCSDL
Chain of Gamma-aminobutyric acid receptor subunit alpha-4 (P48169 whole entry): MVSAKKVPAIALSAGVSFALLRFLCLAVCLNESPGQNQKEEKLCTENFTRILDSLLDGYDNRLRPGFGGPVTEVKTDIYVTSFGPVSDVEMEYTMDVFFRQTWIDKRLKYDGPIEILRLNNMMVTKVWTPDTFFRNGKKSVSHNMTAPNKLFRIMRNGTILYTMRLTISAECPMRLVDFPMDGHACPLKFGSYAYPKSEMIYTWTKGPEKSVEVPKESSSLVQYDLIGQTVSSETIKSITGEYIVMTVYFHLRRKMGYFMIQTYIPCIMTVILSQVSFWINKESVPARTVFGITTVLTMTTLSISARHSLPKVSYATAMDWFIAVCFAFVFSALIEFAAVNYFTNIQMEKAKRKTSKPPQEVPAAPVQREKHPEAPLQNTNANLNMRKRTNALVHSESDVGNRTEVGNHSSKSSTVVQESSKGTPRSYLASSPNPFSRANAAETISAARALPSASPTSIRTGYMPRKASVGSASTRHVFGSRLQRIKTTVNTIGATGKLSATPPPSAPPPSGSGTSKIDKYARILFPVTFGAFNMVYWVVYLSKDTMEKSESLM
T2 sequence (P06276 whole entry): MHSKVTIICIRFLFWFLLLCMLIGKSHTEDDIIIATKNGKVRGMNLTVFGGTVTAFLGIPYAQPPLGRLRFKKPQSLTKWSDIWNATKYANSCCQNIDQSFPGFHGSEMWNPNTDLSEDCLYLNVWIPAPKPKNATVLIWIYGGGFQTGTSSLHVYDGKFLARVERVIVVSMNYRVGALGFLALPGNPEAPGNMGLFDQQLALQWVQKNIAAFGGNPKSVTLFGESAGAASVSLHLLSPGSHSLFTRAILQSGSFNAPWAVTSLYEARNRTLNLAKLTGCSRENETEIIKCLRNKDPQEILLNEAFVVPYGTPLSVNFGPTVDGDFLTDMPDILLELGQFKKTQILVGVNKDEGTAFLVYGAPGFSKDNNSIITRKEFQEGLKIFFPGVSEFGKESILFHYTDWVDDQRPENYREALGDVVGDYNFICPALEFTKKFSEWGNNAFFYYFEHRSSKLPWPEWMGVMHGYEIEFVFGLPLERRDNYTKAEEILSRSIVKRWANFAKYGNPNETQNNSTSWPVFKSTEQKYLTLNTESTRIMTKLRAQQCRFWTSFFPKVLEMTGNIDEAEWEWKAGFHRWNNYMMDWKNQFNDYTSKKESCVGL
Chain of Gamma-aminobutyric acid receptor subunit alpha-6 (Q16445 whole entry): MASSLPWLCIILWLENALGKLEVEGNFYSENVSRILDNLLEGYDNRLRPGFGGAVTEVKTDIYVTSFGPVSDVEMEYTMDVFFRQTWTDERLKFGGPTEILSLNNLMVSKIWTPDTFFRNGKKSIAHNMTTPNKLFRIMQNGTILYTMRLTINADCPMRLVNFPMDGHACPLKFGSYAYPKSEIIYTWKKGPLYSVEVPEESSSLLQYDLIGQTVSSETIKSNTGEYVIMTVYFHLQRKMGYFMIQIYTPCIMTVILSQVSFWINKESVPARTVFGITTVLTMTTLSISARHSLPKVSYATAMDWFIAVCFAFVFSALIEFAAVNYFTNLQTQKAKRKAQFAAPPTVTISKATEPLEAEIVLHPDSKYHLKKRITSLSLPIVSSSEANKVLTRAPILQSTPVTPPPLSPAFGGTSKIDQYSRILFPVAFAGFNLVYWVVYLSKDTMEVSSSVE
Chain of 5-hydroxytryptamine receptor 5A (P47898 whole entry): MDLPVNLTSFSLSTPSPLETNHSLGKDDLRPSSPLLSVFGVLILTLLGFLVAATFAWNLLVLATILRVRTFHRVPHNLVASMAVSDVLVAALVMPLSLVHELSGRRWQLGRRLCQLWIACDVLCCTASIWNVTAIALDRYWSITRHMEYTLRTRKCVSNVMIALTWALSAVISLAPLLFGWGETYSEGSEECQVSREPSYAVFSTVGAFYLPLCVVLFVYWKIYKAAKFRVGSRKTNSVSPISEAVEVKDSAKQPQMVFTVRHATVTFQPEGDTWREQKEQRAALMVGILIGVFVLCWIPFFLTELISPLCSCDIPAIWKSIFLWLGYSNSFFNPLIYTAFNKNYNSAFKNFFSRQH
Chain of Glutamate receptor ionotropic, NMDA 2B (Q13224 whole entry, one chain of several): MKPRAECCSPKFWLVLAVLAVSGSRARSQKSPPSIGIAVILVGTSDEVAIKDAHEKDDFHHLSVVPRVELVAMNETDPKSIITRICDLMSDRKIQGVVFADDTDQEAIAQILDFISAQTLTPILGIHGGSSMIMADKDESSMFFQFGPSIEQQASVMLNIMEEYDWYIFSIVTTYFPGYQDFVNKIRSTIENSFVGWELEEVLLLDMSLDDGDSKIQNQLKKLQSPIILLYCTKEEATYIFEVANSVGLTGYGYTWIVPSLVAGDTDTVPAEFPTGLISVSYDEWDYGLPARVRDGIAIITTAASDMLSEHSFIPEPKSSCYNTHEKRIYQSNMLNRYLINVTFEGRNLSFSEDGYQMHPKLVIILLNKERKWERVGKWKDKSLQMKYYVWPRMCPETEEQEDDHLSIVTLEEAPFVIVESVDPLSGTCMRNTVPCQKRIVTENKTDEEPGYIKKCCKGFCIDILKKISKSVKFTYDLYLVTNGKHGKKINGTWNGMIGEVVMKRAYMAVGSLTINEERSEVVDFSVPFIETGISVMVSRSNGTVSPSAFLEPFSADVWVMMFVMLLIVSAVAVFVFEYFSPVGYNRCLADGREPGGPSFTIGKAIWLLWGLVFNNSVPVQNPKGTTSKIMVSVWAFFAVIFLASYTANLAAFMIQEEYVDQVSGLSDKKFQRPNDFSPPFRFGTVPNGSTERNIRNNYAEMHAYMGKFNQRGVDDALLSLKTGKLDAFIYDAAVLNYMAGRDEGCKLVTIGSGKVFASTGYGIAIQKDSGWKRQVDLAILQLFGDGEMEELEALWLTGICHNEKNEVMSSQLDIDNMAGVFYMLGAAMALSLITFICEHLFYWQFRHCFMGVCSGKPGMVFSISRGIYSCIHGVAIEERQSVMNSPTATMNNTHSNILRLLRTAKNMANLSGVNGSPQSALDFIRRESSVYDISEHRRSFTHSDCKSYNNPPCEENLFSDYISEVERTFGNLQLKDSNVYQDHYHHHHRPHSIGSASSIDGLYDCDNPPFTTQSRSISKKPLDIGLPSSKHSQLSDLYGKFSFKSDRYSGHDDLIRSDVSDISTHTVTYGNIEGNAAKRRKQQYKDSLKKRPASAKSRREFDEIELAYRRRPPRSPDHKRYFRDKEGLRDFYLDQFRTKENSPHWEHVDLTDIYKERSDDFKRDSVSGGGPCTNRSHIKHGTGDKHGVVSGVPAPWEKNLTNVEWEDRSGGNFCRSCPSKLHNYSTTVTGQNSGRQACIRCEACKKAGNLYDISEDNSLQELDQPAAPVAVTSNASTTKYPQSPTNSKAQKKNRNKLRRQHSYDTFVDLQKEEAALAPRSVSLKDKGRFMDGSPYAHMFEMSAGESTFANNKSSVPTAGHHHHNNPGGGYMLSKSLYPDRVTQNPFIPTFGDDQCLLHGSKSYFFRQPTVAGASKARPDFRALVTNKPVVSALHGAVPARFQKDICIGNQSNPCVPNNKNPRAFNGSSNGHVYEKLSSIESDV

SMILES: O=C(CN1CCCCC1)Nc1ccc2nc3c4[nH]c5ccccc5c4ccn3c(=O)c2c1
- IC50 [1]: 10 nM
- IC50 [2]: 5400 nM

- IC50 [3]: 50 nM
SMILES: Oc1ccc2c3c([nH]c2c1)CN(CCCCc1ccccc1)CC3

SMILES: CC(C)n1c2ccccc2c2cc[n+](-c3ccccc3)cc21
- IC50 [4]: 540 nM
- IC50 [5]: 37000 nM
- IC50 [6]: 3100 nM

- Ki [7]: 86 nM
SMILES: CC(C)CCn1c2c(c3c(O)cc(O)cc31)CCn1c-2nc2ccccc2c1=O

SMILES: Cc1ccc2c(c1)c1cc[n+](-c3ccccc3)cc1n2C
- IC50 [4]: 420 nM
- IC50 [5]: 17000 nM
- IC50 [6]: 420 nM

SMILES: Cc1cc2cc3n(c(=O)c2cn1)CCc1c-3[nH]c2ccccc12
- IC50 [1]: 22000 nM
- IC50 [2]: 1000 nM

- IC50 [3]: 140 nM
SMILES: Oc1ccc2[nH]c3c(c2c1)CCN(CCCCc1ccccc1)C3

SMILES: CCCCCCCNC(=O)Oc1ccc2c(c1)CN1CCc3c([nH]c4ccccc34)C1N2C (configuration not stated)
- IC50 [1]: > 10000 nM
- IC50 [2]: 77 nM

SMILES: O=C1c2ccccc2-[n+]2ccc3c([nH]c4ccccc43)c21 [FASCAPLYSIN]
- IC50 [1]: 1500 nM
- IC50 [2]: 90000 nM

SMILES: COc1cccc2[nH]c3c(c12)CCN=C3
- Ki [8]: 65 nM

SMILES: CC(C)(C)OC(=O)c1cc2c(cn1)[nH]c1ccccc12
- IC50 [9]: 1 nM
- Ki [10]: 0.7 nM
- Ki [11]: 15 nM
- Ki [12]: 19 nM
- Ki [13]: 1000 nM
- Ki [14]: 110 nM
- Ki [15]: > 5000 nM

SMILES: C[n+]1ccc2c(c1)[nH]c1ccccc12 [NORMELINONINE F]
- IC50 [5]: 800 nM
- IC50 [6]: 4100 nM

SMILES: COCc1c(C(=O)OC(C)C)ncc2[nH]c3ccc(OCc4ccccc4)cc3c12 [ABECARNIL]
- IC50 [9]: 1 nM
- Ki [10]: 1 nM
- Ki [11]: 2 nM
- Ki [12]: 4 nM
- Ki [13]: 1200 nM
- Ki [14]: 5 nM
- Ki [15]: 6400 nM

SMILES: COC(=O)c1cc2c(cn1)[nH]c1ccccc12 [BETA-CCM]
- IC50 [9]: 1 nM
- Ki [10]: 2 nM
- Ki [11]: 7 nM
- Ki [12]: 72 nM
- Ki [13]: 1000 nM
- Ki [14]: 44 nM
- Ki [15]: 4400 nM

SMILES: Cn1c2ccccc2c2cc[n+](-c3ccc(Br)cc3)cc21
- IC50 [5]: 32000 nM and 116000 nM
- IC50 [16]: 240 nM

SMILES: Cn1c2c(c3ccccc31)CC[N+](c1ccc(Br)cc1)=C2
- IC50 [16]: 1500 nM

- Ki [10]: 3 nM
- Ki [11]: 12 nM
- Ki [12]: 11 nM
- Ki [14]: 230 nM
- Ki [15]: > 10000 nM
- IC50 [17]: 4 nM
SMILES: COc1ccc2c(c1)[nH]c1c2ncc2[nH]c3ccccc3c21

- Ki [18]: 1400 nM
- Ki [19]: 1400 nM
SMILES: c1ccc(-c2nccc3c2[nH]c2ccccc23)cc1

- Ki [18]: 1500 nM
- Ki [19]: 1500 nM
SMILES: c1ccc2cc(-c3nccc4c3[nH]c3ccccc34)ccc2c1

SMILES: Cc1ccc(-[n+]2ccc3c4ccccc4n(C)c3c2)cc1
- IC50 [4]: 290 nM and 300 nM
- IC50 [5]: 32000 nM and 116000 nM
- IC50 [16]: 240 nM
